Read-outs that look alike come from different tables or passages of the source.
Experiment: Phase 2 crossover study: plasma pharmacokinetics in schizophrenia subjects
Format: in vivo, human
Conditions: for AUC(0-inf) / Cmax / Tmax: human, plasma, schizophrenia subjects; for Tmax: read-out: median tmax
Description: On Day 1 of each treatment period, following study drug administration, and commencing at approximately 2 h post-dose, subjects underwent PD tests for a total of approximately 4 h. Blood samples were collected at defined times after dosing to assess the PK of Compound (I). After the last PK collection at 6 h post-dose, subjects left the clinic. On Day 14 of each Treatment Period, subjects took the second set of PD tests along with a single time point PK collection. Samples for PK were also collected on Day 49 and at the final visit of the second treatment period. PD testing were performed in 3 blocks, separated by 2 breaks. The first block comprised the Grip Effort Task, the Progressive Ratio Test, and the Brief Assessment of Cognition in Schizophrenia (BACS). The BACS is a reliable and sensitive test battery specifically designed to efficiently assesses important cognitive deficits in patients with schizophrenia; accordingly, the BACS is suited for repeated testing in a clinical trial setting (Keefe et al., 2004). […] The following domains of cognitive function found to be consistently impaired in schizophrenia were assessed in this study: verbal memory; working memory; motor function; attention and processing speed; verbal fluency; and executive function. A composite score was calculated from each of the subset scores and used as a single endpoint for the assessment.
Dosing involved participants drinking a single bottle of oral suspension, containing either Compound (I) (40 or 160 mg Compound (I) mixed with 70 mL Tween/MC vehicle) or placebo (70 mL of Tween/MC vehicle) (Table 11). Participants were instructed to drink the full contents of the bottle, which was then rinsed twice with 35 mL water, which participants also drank. The initial dose level selected was 40 mg, which was adjusted to 160 mg following a planned interim analysis of available PK and safety data from emerging first-in-human cohort data.
The PK set consisted of all subjects who received at least 1 dose of study drug and had at least 1 measurable plasma concentration.
Compound (I) plasma concentrations were tabulated and summarized by descriptive statistics at each scheduled time point (mean, median, SD, percent coefficient of variation, minimum, and maximum) for each treatment and dose level. Individual subject plasma concentration data were listed.
The plasma PK parameters of Compound (I) were determined from the concentration-time profiles for all evaluable subjects. Actual sampling times, rather than scheduled sampling times, were used in all computations involving sampling times. The following PK parameters were calculated using non-compartmental analysis using Phoenix WinNonLin (version 6.3 or higher): area under the plasma concentration-time curve from time 0 to time t, area under the plasma concentration-time curve from time 0 to infinity (AUC∞), maximum observed plasma concentration (Cmax), time of first occurrence of Cmax (tmax), and terminal disposition phase half-life.

C[C@H](NC(=O)Cn1nnc2ccccc2c1=O)c1ccc(OC(F)(F)F)cc1 [Compound (I), (S)-2-(4-oxobenzo[d][1,2,3]triazin-3(4H)-yl)-N-(1-(4-(trifluoromethoxy)phenyl)ethyl)acetamide]
increase of mean AUC∞ for a 4-fold increase in dose (40 to 160 mg): 3.5 fold
increase of mean Cmax for a 4-fold increase in dose (40 to 160 mg): 2.8 fold
AUC(0-inf) (single oral dose 40 mg): 217 µg·h/mL
Cmax (single oral dose 40 mg): 549 ng/mL
Tmax (single oral dose 40 mg): 1.83 h
AUC(0-inf) (single oral dose 160 mg): 763 µg·h/mL
Cmax (single oral dose 160 mg): 1520 ng/mL
Tmax (single oral dose 160 mg): 1.92 h
